Activity calls are given as the source filed them.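 The calls were made as follows: active = EC50 at most 30 µM plus a dose-response curve spanning at least 25% response; inactive = the rest.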

In the assay the target is Ras-related C3 botulinum toxin substrate 1 (Homo sapiens) (UniProt P63000). As to the kind of experiment: activated mutant Rac1 GTP binding inhibitors, SAR follow-up, biochemical, pyrazoline analogs, multiplex bead flow cytometry (AID 2048). Conditions: Bead-based flow cytometry, Bodipy-FL-GTP binding to GST-Rac1. A general note: Flow cytometry measures light scatter and fluorescence of single cells or particles in a stream.
Consider `COc1ccc(C2CC(c3ccc(Cl)cc3)=NN2c2ccc(S(N)(=O)=O)cc2)cc1` (configuration not stated), for which the EC50 entry is “inactive”. Then `COc1ccc(-c2cc(-c3ccccc3)nn2-c2ccc(S(N)(=O)=O)cc2)cc1`, with “inactive”; and `COc1ccc(C2CC(c3ccccc3)=NN2c2ccc(C(N)=O)cc2)cc1` (configuration not stated), with “inactive”.

With `O=[N+]([O-])c1cccc(C2CC(c3ccc(F)cc3)=NN2c2ccccc2)c1` (configuration not stated), the EC50 result was “inactive”. The result for `COc1ccc(C2CC(c3ccc(C)cc3)=NN2c2ccc(S(N)(=O)=O)cc2)cc1` (configuration not stated) reads “inactive”; that for `COc1ccc(C2CC(c3cccc(N(C)C)c3)=NN2c2ccc(S(N)(=O)=O)cc2)cc1` (configuration not stated), “inactive”. Consider `COc1ccc(C2CC(c3ccccc3)=NN2c2ccc(Cl)c(C(=O)O)c2)cc1` (configuration not stated), for which the EC50 result is “inactive”.
